The test system of one experiment is MRSA. Put plainly: In vitro activity (MIC) against MRSA strains collected in 2005. The note with it: for % resistance / % susceptible: CLSI (2007) criteria. It counts as cell-based, Staphylococcus aureus.
Experiment [1] has as its system susceptible Staphylococcus aureus (MSSA). Put plainly: In vitro activity (MIC) against susceptible Staphylococcus aureus (MSSA) strains collected in 2005. It counts as cell-based. The settings on record: for % resistance / % susceptible: CLSI (2007) criteria.
The subject of another experiment is C. difficle. Put plainly: In vitro activity (MIC) against 25 clinical strains of C. difficile. The settings on record: for MIC50 / MIC90: Clostridioides difficile. It is filed as cell-based.
[2] abbreviates: North America 2005, 1,158 strains.
The mark [3] stands for this setting: North America and Europe 2005, 1,644 strains.
[4] abbreviates: Staphylococcus aureus, MRSA, North America 2005, 1,158 strains, read-out: MIC90.
The mark [5] stands for this setting: Staphylococcus aureus, MRSA, North America and Europe 2005, 1,644 strains, read-out: MIC50.
Setting [6] is: Staphylococcus aureus, MRSA, North America and Europe 2005, 1,644 strains, read-out: MIC90.
[7] abbreviates: North America 2005, 1,232 strains.
[8] abbreviates: North America and Europe 2005, 2,276 strains.
The mark [9] stands for this setting: Staphylococcus aureus, MSSA, North America and Europe 2005, 2,276 strains, read-out: MIC50.
[10] abbreviates: Staphylococcus aureus, MSSA, North America and Europe 2005, 2,276 strains, read-out: MIC90.

The structures appear in SMILES notation. Values after ≈ are worked out from the molar mass of the structure shown. Where two headings read alike, the source gives them in different places. Where only a bound is given, the exact number is not on record here.

For `C[C@H]1COc2c(N3CCN(C)CC3)c(F)cc3c(=O)c(C(=O)O)cn1c23` [Levofloxacin], the MIC50 in the experiment on MRSA (setting [2]) is greater than 4 µg/mL; with MRSA (setting [5]), greater than 4 µg/mL; in experiment [1] (Europe 2005, 1,044 strains), “≦0.5 μg/ml”; in experiment [1] (setting [7]), “≦0.5 μg/ml”; in experiment [1] (setting [9]), no more than 0.5 µg/mL. In addition, the “% resistance” value in the experiment on MRSA (setting [2]) was 71.7%; in the experiment on MRSA (setting [3]), 77.4%; in experiment [1] (Europe 2005, 1,044 strains), 6.8%; in experiment [1] (setting [7]), 6.6%; in experiment [1] (setting [8]) it was 6.7%. For the same compound, the “% susceptible” value is 26.4% in the experiment on MRSA (setting [2]); 20.6% with MRSA (setting [3]); 93.0% in experiment [1] (Europe 2005, 1,044 strains); 93.0% in experiment [1] (setting [7]); 93.0% in experiment [1] (setting [8]). For the same compound, the MIC90 was greater than 4 µg/mL with MRSA (setting [4]); greater than 4 µg/mL with MRSA (setting [6]); “≦0.5 μg/ml” in experiment [1] (Europe 2005, 1,044 strains); “≦0.5 μg/ml” in experiment [1] (setting [7]); no more than 0.5 µg/mL in experiment [1] (setting [10]).
With `CCC[C@@H]1C[C@@H](C(=O)N[C@@H]([C@H]2O[C@H](SC)[C@H](O)[C@@H](O)[C@H]2O)[C@H](C)Cl)N(C)C1` [Clindamycin], the MIC50 entry with MRSA (setting [2]) is “≦0.25 μg/ml”; in the experiment with MRSA (setting [5]), no more than 0.25 µg/mL; in experiment [1] (Europe 2005, 1,044 strains), “≦0.25 μg/ml”; in experiment [1] (setting [7]), “≦0.25 μg/ml”; in experiment [1] (setting [9]) it was no more than 0.25 µg/mL. In addition, the “% resistance” value in the experiment with MRSA (setting [2]) amounted to 44.3%; with MRSA (setting [3]), 45.3%; in experiment [1] (Europe 2005, 1,044 strains), 3.2%; in experiment [1] (setting [7]) it was 4.8%; in experiment [1] (setting [8]) it was 4.0%. The “% susceptible” value is 55.5% with MRSA (setting [2]); 54.6% in the experiment with MRSA (setting [3]); 96.6% in experiment [1] (Europe 2005, 1,044 strains); 95.0% in experiment [1] (setting [7]); 95.7% in experiment [1] (setting [8]). Moreover, the MIC90 in the experiment with MRSA (setting [4]) is greater than 2 µg/mL; with MRSA (setting [6]) it was greater than 2 µg/mL; in experiment [1] (Europe 2005, 1,044 strains), “≦0.25 μg/ml”; in experiment [1] (setting [7]), “≦0.25 μg/ml”; in experiment [1] (setting [10]), no more than 0.25 µg/mL.
As to `CN(C)[C@@H]1C(O)=C(C(N)=O)C(=O)[C@@]2(O)C(O)=C3C(=O)c4c(O)cccc4[C@@](C)(O)[C@H]3C[C@@H]12` [Tetracycline], the MIC50 entry is “≦2 μg/ml” in the experiment with MRSA (setting [2]); no more than 2 µg/mL with MRSA (setting [5]); “≦2 μg/ml” in experiment [1] (Europe 2005, 1,044 strains); “≦2 μg/ml” in experiment [1] (setting [7]); no more than 2 µg/mL in experiment [1] (setting [9]). For the same compound, the “% resistance” value with MRSA (setting [2]) amounted to 7.0%; with MRSA (setting [3]), 10.3%; in experiment [1] (Europe 2005, 1,044 strains), 6.5%; in experiment [1] (setting [7]) it was 2.7%; in experiment [1] (setting [8]), 4.4%. Also, the “% susceptible” value in the experiment with MRSA (setting [2]) is recorded as 92.5%; in the experiment with MRSA (setting [3]), 88.8%; in experiment [1] (Europe 2005, 1,044 strains), 93.3%; in experiment [1] (setting [7]), 96.8%; in experiment [1] (setting [8]) it was 95.2%. Moreover, the MIC90 with MRSA (setting [4]) was no more than 2 µg/mL; with MRSA (setting [6]) it was greater than 8 µg/mL; in experiment [1] (Europe 2005, 1,044 strains), “≦2 μg/ml”; in experiment [1] (setting [7]) it was “≦2 μg/ml”; in experiment [1] (setting [10]), no more than 2 µg/mL.
`CC[C@H]1OC(=O)[C@H](C)[C@@H](O[C@H]2C[C@@](C)(OC)[C@@H](O)[C@H](C)O2)[C@H](C)[C@@H](O[C@@H]2O[C@H](C)C[C@H](N(C)C)[C@H]2O)[C@](C)(O)C[C@@H](C)C(=O)[C@H](C)[C@@H](O)[C@]1(C)O` [Erythromycin]: the MIC50 with MRSA (setting [2]) and with MRSA (setting [5]) was greater than 8 µg/mL throughout. Further, the “% resistance” value in the experiment with MRSA (setting [2]) came to 94.8%; in the experiment with MRSA (setting [3]), 89.2%; in experiment [1] (Europe 2005, 1,044 strains), 13.3%; in experiment [1] (setting [7]) it was 28.0%; in experiment [1] (setting [8]) it was 21.3%. The “% susceptible” value with MRSA (setting [2]) was 4.8%; in the experiment with MRSA (setting [3]) it was 10.2%; in experiment [1] (Europe 2005, 1,044 strains), 86.2%; in experiment [1] (setting [7]), 70.8%; in experiment [1] (setting [8]), 77.9%. Moreover, the MIC90 was greater than 8 µg/mL with MRSA (setting [4]); greater than 8 µg/mL in the experiment on MRSA (setting [6]); greater than 8 µg/mL in experiment [1] (Europe 2005, 1,044 strains); greater than 8 µg/mL in experiment [1] (setting [7]); greater than 8 µg/mL in experiment [1] (setting [10]).
As for `O=C(N[C@H](CO)[C@H](O)c1ccc([N+](=O)[O-])cc1)C(Cl)Cl` [chloramphenicol, Chloramphenicol], the MIC50 with MRSA (setting [2]) worked out at 8 µg/mL (≈ 24.8 µM); with MRSA (setting [5]), 8 µg/mL (≈ 24.8 µM); in experiment [1] (Europe 2005, 1,044 strains), 8 µg/mL (≈ 24.8 µM); in experiment [1] (setting [7]), 8 µg/mL (≈ 24.8 µM); in experiment [1] (setting [9]) it was 8 µg/mL (≈ 24.8 µM); in the experiment with C. difficle (25 clinical strains, read-out: MIC50) it was 4 µM (≈ 1.29 µg/mL). The “% resistance” value is recorded as 0.4% in the experiment with MRSA (setting [2]); 1.9% with MRSA (setting [3]); 1.4% in experiment [1] (Europe 2005, 1,044 strains); 0.0% in experiment [1] (setting [7]); 0.7% in experiment [1] (setting [8]). Besides, the “% susceptible” value with MRSA (setting [2]) is listed as 92.3%; in the experiment on MRSA (setting [3]), 91.5%; in experiment [1] (Europe 2005, 1,044 strains) it was 98.4%; in experiment [1] (setting [7]), 99.4%; in experiment [1] (setting [8]) it was 98.9%; in the experiment with C. difficle (25 clinical strains), 88.0%. In addition, the MIC90 in the experiment with MRSA (setting [4]) came out at 8 µg/mL (≈ 24.8 µM); in the experiment on MRSA (setting [6]) it was 8 µg/mL (≈ 24.8 µM); in experiment [1] (Europe 2005, 1,044 strains) it was 8 µg/mL (≈ 24.8 µM); in experiment [1] (setting [7]), 8 µg/mL (≈ 24.8 µM); in experiment [1] (setting [10]), 8 µg/mL (≈ 24.8 µM); with C. difficle (25 clinical strains, read-out: MIC90), 16 µM (≈ 5.17 µg/mL). The “% resistant” value with C. difficle (25 clinical strains) came out at 8.0%.
Regarding `CN[C@H](CC(C)C)C(=O)N[C@H]1C(=O)N[C@@H](CC(N)=O)C(=O)N[C@H]2C(=O)N[C@H]3C(=O)N[C@H](C(=O)N[C@H](C(=O)O)c4cc(O)cc(O)c4-c4cc3ccc4O)[C@H](O)c3ccc(c(Cl)c3)Oc3cc2cc(c3O[C@@H]2O[C@H](CO)[C@@H](O)[C@H](O)[C@H]2O[C@H]2C[C@](C)(N)[C@H](O)[C@H](C)O2)Oc2ccc(cc2Cl)[C@H]1O` [Vancomycin], the MIC50 against MRSA (setting [2]) was 1 µg/mL (≈ 0.69 µM); in the experiment with MRSA (setting [5]), 1 µg/mL (≈ 0.69 µM); in experiment [1] (Europe 2005, 1,044 strains), 1 µg/mL (≈ 0.69 µM); in experiment [1] (setting [7]), 1 µg/mL (≈ 0.69 µM); in experiment [1] (setting [9]), 1 µg/mL (≈ 0.69 µM). The MIC90 was found to be 1 µg/mL (≈ 0.69 µM) against MRSA (setting [2]); 1 µg/mL (≈ 0.69 µM) with MRSA (setting [6]); 1 µg/mL (≈ 0.69 µM) in experiment [1] (Europe 2005, 1,044 strains); 1 µg/mL (≈ 0.69 µM) in experiment [1] (setting [7]); 1 µg/mL (≈ 0.69 µM) in experiment [1] (setting [10]). For the same compound, the “% resistance” value was found to be 0.0% with MRSA (setting [2]); 0.0% with MRSA (setting [3]); 0.0% in experiment [1] (Europe 2005, 1,044 strains); 0.0% in experiment [1] (setting [7]); 0.0% in experiment [1] (setting [8]). The “% susceptible” value in the experiment with MRSA (setting [2]) came out at 100%; in the experiment with MRSA (setting [3]), 100%; in experiment [1] (Europe 2005, 1,044 strains), 100%; in experiment [1] (setting [7]) it was 100%; in experiment [1] (setting [8]), 100%. Further, the “Range (MIC)” value is reported as “≦0.12-2” in experiment [1] (Europe 2005, 1,044 strains); “≦0.25-2” in experiment [1] (setting [7]); “≦0.12-2” in experiment [1] (setting [8]).
As for `Cc1ncc([N+](=O)[O-])n1CCO` [Metronidazole], in the experiment on C. difficle (25 clinical strains), the “% resistant” value was 00% and the “% susceptible” value is 100%. In the experiment on C. difficle, the MIC50 worked out at 0.25 µM (≈ 0.0428 µg/mL) and the MIC90 is 0.5 µM (≈ 0.0856 µg/mL).

Broadly, the MIC50 is the lowest concentration that inhibits either 50% of growth or 50% of the strains tested, depending on the study. The term MIC90 denotes the lowest concentration that inhibits either 90% of growth or 90% of the strains tested, depending on the study.

The record behind these values is patent US20090148512A1, “NOVEL USES OF CHLORAMPHENICOL AND ANALOGOUS THEREOF” (LANNETT CO INC, priority 2007, published 2009).
